Source: ChEMBL document CHEMBL1158876, “New acylated sulfoglycolipids and digalactolipids and related known glycolipids from cyanobacteria with a potential to inhibit the reverse transcriptase of HIV-1” (J Nat Prod, 1997)

Target: Gag-Pol polyprotein (Human immunodeficiency virus type 1 group M subtype B (isolate BH10)(HIV-1)) (UniProt P03366)
Test: Inhibition of RNA dependent DNA polymerase activity of HIV1 BH10 recombinant reverse transcriptase p66/p51 expressed in Escherichia coli at 10 uM
Conditions: Human immunodeficiency virus 1

Question: How did the inhibition turn out when CCCCC/C=C\C/C=C\CCCCCCCC(=O)OC[C@H](CO[C@@H]1O[C@H](CO[C@H]2O[C@H](CO)[C@H](O)[C@H](OC(=O)CCCCCCCCCCCCCCC)[C@H]2O)[C@H](O)[C@H](O)[C@H]1O)OC(=O)CCCCCCCCCCCCCCC was run?
Answer: 42%

Question: Which inhibition does the source give for CCCCCCCC/C=C\CCCCCCCC(=O)OC[C@H](CO[C@@H]1O[C@H](CO)[C@H](O)[C@H](O)C1O)OC(=O)CCCCCCCCCCCCCCC (single isomer, unassigned) here?
Answer: 33%

Question: How did the inhibition turn out when CCCCCCCC/C=C\CCCCCCCC(=O)OC[C@H](CO[C@H]1O[C@H](CS(=O)(=O)O)[C@@H](O)[C@H](O)[C@H]1O)OC(=O)CCCCCCCCCCCCCCC was run?
Answer: 100%

Question: With CCCCC/C=C\C/C=C\CCCCCCCC(=O)OC[C@H](CO[C@H]1O[C@H](CS(=O)(=O)O)[C@@H](O)[C@H](O)[C@H]1O)OC(=O)CCCCCCCCCCCCCCC as the molecule, how does the inhibition read?
Answer: 100%

Question: CCCCCCCCCCCCCCCC(=O)OC[C@H](CO[C@H]1O[C@H](CS(=O)(=O)O)[C@@H](O)[C@H](O)[C@H]1O)OC(=O)CCCCCCCCCCCCCCC was tested. Which inhibition did it give?
Answer: 100%

Question: CCCCC/C=C\C/C=C\CCCCCCCC(=O)OC[C@H](CO[C@@H]1O[C@H](CO)[C@H](O)[C@H](O)C1O)OC(=O)CCCCCCCCCCCCCCC (single isomer, unassigned) was tested. Which inhibition did it give?
Answer: 65%

Question: CCCCCCCCCCCCCCCC(=O)OC[C@H](CO[C@@H]1O[C@H](CO)[C@H](O)[C@H](O)C1O)OC(=O)CCCCCCCCCCCCCCC (single isomer, unassigned) was tested. Which inhibition did it give?
Answer: 8%

Question: Which inhibition does the source give for CCCCC/C=C\C/C=C\CCCCCCCC(=O)OC[C@H](CO[C@H]1O[C@H](CS(=O)(=O)O)[C@@H](O)[C@H](OC(=O)CCCCCCCCCCCCCCC)[C@H]1OC(=O)CCCCCCCCCCCCCCC)OC(=O)CCCCCCCCCCCCCCC here?
Answer: 100%
